Like-named read-outs stand apart in the source and are kept apart here.
What was measured:
[1] = tested on: antiviral genes IFNB1, ISG56, CCL5 and Mx1; format: cell-based, human
SARS-CoV-2 [2] = format: cell-based
IFN-β promoter activity = format: cell-based, human; settings: for IFN induction: Sendai virus; for effect on IFN induction, compared with AE-1-10: 293T cells with SeV infection
SARS-CoV-2 [3] = format: cell-based; remark: listed apart in the source
CTP synthesis = format: cell-based, human
NF-κB promoter activity = format: cell-based, human; settings: 293T cells
IFNB1 expression = format: cell-based, human; settings: 293T cells pre-treated 2 h, Sendai virus infection 9 h
IRF3 deamidation = IRF3 deamidation by two-dimensional gel electrophoresis and immunoblotting; format: cell-based, human; settings: Caco-2 cells expressing ORF8 or A549 cells expressing Nsp8; 5 μM
CTPS1 [4] = biological target: T1, CTPS1 (Homo sapiens, UniProt P17812); format: binding; set-up: Flag; expressed in transfected cells; host or cells: 293T cells expressing Flag-CTPS1; settings: 293T cells expressing Flag-CTPS1
T1 sequence (P17812 1-591): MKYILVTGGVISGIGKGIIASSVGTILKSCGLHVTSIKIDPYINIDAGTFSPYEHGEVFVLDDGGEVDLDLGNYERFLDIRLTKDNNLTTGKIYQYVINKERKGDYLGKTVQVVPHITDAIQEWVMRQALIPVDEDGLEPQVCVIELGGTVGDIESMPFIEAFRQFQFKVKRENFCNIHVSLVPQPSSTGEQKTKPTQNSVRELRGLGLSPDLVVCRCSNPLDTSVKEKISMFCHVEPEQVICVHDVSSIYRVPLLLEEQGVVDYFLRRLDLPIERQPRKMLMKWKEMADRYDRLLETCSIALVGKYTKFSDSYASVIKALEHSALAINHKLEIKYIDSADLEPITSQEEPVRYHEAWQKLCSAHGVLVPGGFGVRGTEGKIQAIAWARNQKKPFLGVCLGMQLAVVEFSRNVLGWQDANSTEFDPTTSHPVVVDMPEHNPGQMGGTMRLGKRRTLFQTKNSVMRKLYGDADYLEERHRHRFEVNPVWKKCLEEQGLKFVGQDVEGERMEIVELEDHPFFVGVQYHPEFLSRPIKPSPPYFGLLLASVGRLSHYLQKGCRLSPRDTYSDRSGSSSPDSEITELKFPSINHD

SARS-CoV-2 [5] = tested on: SARS-CoV-2; set-up: species or system mice; settings: mouse, in vivo, ip, 35 mg/kg
CTPS1 [6] = biological target: T1, CTPS1; assay: Click-based cross-linking, affinity purification and mass spectrometry to identify cellular targets; format: binding; set-up: endogenous in cells; settings: ranked lower than several other proteins; data not shown
CTPS1 [7] = biological target: T1, CTPS1; format: biochemical; set-up: made in house; settings: with respect to UTP, 2 mM ATP, 2 mM L-glutamine, 0.1 mM GTP, Michaelis-Menten

Molecule: COc1cccc(NC(=O)c2cccc(NC(=O)CCl)c2)c1 [AE-1-10]
- antiviral gene expression [1]: elevated antiviral gene expression
- expression of antiviral genes (IFNB1, ISG56, CCL5, Mx1) [1]: elevated
- viral RNA (SARS-CoV-2 [2]): reduced viral RNA
- IFN induction (IFN-β promoter activity; CTPS1-depleted 293T cells): failed to do so
- IFN induction (IFN-β promoter activity; control 293T cells): elevated IFN induction
- viral yield (SARS-CoV-2 [3]): reduced viral RNA and yield
- [15N]CTP and [15N]CDP (CTP synthesis): reduced [^15N]CTP and, much more so [^15N]CDP in a dose-dependent manner
- intracellular concentration of [15N]CTP and [15N]CDP (CTP synthesis): reduced the intracellular concentration of [^15N]CTP and [^15N]CDP
- NF-κB activation (NF-κB promoter activity): no effect
- IFNB1 expression (IFNB1 expression): increased IFNB1 expression in a dose-dependent manner
- inhibition of IRF3 deamidation (IRF3 deamidation): best efficacy to inhibit IRF3 deamidation

Molecule: CCCCCNC(=O)c1ccc(NC(=O)CCl)s1 [B1]
- reduction of viral RNA abundance compared to the vehicle (DMSO) (SARS-CoV-2 [2]): ~5 order of magnitude
- effect on viral titer (SARS-CoV-2 [3]): reduced viral titer to the limit of detection

Molecule: COc1ccccc1NC(=O)c1cc(NC(=O)CCl)cs1 [B2]
- reduction of viral RNA abundance compared to the vehicle (DMSO) (SARS-CoV-2 [2]): ~5 order of magnitude
- effect on viral titer (SARS-CoV-2 [3]): reduced viral titer to the limit of detection

Molecule: O=C(CCl)Nc1cccc(C(=O)NC2CCCC2)c1 [B4]
- reduction of viral RNA abundance relative to C9 (SARS-CoV-2 [2]): significant improvement compared to C9

Molecule: Cc1ccccc1NC(=O)c1cccc(NC(=O)CCl)c1 [B5]
- reduction of viral RNA abundance relative to C9 (SARS-CoV-2 [2]): significant improvement compared to C9
- effect on viral titer (SARS-CoV-2 [3]): better effect than C9

Molecule: COc1cccc(NC(=O)c2cc(NC(=O)CCl)cs2)c1 [B7]
- reduction of viral RNA abundance compared to the vehicle (DMSO) (SARS-CoV-2 [2]): ~5 order of magnitude
- effect on viral titer (SARS-CoV-2 [3]): reduced viral titer to the limit of detection

Molecule: CCc1ccccc1NC(=O)c1cccc(NC(=O)CCl)c1 [B8]
- reduction of viral RNA abundance relative to C9 (SARS-CoV-2 [2]): significant improvement compared to C9
- effect on viral titer (SARS-CoV-2 [3]): better effect than C9

Molecule: C#CCOc1cccc(NC(=O)c2cccc([N+](=O)[O-])c2)c1 [BE-2-10]
- reaction (labeling) with CTPS1 (CTPS1 [4]): reacted with CTPS1 in a dose-dependent manner

Molecule: O=C(CCl)Nc1cccc(C(=O)NC2CCCCC2)c1 [C1]
- effect on IFN induction, compared with AE-1-10 (IFN-β promoter activity): no effect

Molecule: COc1cccc(N(C)C(=O)c2cccc(NC(=O)CCl)c2)c1 [C2]
- effect on IFN induction, compared with AE-1-10 (IFN-β promoter activity): no effect

Molecule: COc1ccc(NC(=O)c2cccc(NC(=O)CCl)c2)cc1 [C4]
- effect on IFN induction, compared with AE-1-10 (IFN-β promoter activity): improved effect to increase IFN induction

Molecule: COc1ccccc1NC(=O)c1cccc(NC(=O)CCl)c1 [C5]
- effect on IFN induction, compared with AE-1-10 (IFN-β promoter activity): improved effect to increase IFN induction
- antiviral activity in SARS-CoV-2 infection, compared to AE-1-10 (SARS-CoV-2 [3]): more robust antiviral activity

Molecule: O=C(CCl)Nc1cccc(C(=O)Nc2ncc[nH]2)c1 [C6]
- effect on IFN induction, compared with AE-1-10 (IFN-β promoter activity): modest effect

Molecule: O=C(Nc1ccccc1)c1ccc([N+](=O)[O-])s1 [C7]
- effect on IFN induction, compared with AE-1-10 (IFN-β promoter activity): modest effect

Molecule: O=C(CCl)Nc1csc(C(=O)Nc2ccccc2)c1 [C8]
- effect on IFN induction, compared with AE-1-10 (IFN-β promoter activity): improved effect to increase IFN induction

Molecule: CCCCCNC(=O)c1cccc(NC(=O)CCl)c1 [C9]
- reduction of viral RNA abundance compared to the vehicle (DMSO) (SARS-CoV-2 [2]): ~2 order of magnitude
- effect on IFN induction, compared with AE-1-10 (IFN-β promoter activity): improved effect to increase IFN induction
- antiviral activity in SARS-CoV-2 infection, compared to AE-1-10 (SARS-CoV-2 [3]): more robust antiviral activity
- reduction of SARS-CoV-2 titer (SARS-CoV-2 [3]): ~3 order of magnitude
- protection against SARS-CoV-2 infection (SARS-CoV-2 [5]): protect against infection

Molecule: [N-]=[N+]=CC(=O)CC[C@H](N)C(=O)O [DON, 6-diazo-5-oxo-L-norleucine, reference compound]
- Sendai virus-induced IFN-β gene expression (IFN-β promoter activity; CTPS1 depleted and control 293T cells): elevated

Molecule: C#CCOc1cccc(Nc2ncnc3ccc(NC(=O)CCl)cc23)c1 [Q6ca]
- cellular target identification (CTPS1 [6]): identification of CTPS1 as a cellular target

Molecule: ORF7b: SARS-CoV-2 polypeptide transiently expressed in the 293T cells from which CTPS1 was purified
- Kcat (CTPS1 [7]): 0.0147 ± 0.006 s⁻¹
- Km (CTPS1 [7]): 30.5 ± 21.5 mM

Molecule: ORF8: SARS-CoV-2 polypeptide transiently expressed in the 293T cells from which CTPS1 was purified
- Kcat (CTPS1 [7]): 0.0212 ± 0.0137 s⁻¹
- Km (CTPS1 [7]): 55.2 ± 50.3 mM
